Measurements published in ChEMBL document CHEMBL1201862, “PubChem BioAssay data set” (2004).
Active and inactive are the calls of the source.

Tests used:
[1] = molecular target: T1, Calpain-2 catalytic subunit (Sus scrofa, UniProt P43367); assay: m-calpain protease blockers, concentration series – biochemical, fluorogenic peptide substrate, dose response (AID 1420); assay type: functional
T1 sequence (P43367 whole entry): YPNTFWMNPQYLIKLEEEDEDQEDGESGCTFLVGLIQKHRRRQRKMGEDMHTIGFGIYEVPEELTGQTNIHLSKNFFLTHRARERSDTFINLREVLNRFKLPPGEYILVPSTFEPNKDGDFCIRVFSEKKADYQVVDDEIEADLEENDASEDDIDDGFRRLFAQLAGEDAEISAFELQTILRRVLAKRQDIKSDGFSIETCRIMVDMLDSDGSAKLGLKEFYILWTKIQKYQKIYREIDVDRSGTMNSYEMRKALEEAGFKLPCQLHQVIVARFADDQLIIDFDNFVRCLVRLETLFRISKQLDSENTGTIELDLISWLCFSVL

[2] = molecular target: Eukaryotic translation initiation factor 4E (Mus musculus, UniProt P63073); assay: blockers of eIF4G binding by eIF4E – biochemical, TR-FRET, dose response (AID 855); assay type: functional;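 further: potency for disrupting eIF4E binding to eIF4GI seen as loss of FRET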
Chain of Eukaryotic translation initiation factor 4E (P63073 whole entry): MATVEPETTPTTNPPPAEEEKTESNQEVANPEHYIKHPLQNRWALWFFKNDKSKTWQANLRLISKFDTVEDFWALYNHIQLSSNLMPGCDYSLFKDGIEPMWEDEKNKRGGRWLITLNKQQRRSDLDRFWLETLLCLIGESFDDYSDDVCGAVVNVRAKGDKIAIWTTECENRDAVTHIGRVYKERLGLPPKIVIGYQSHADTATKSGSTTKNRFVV

Escherichia coli = assay: microbe, parasite or virus in culture
[3] = Counterscreen for IDE inhibitors: Luminescence-based cell-based high throughput dose response assay to identify compounds that are cytotoxic to HEK cells. [Related pubchem assays: 434962 (Primary screen (IDE inhibitors in singlicate)), 449730 (Counterscreen (Cytotoxicity in triplicate)), 435028 (Confirmation (IDE inhibitors in triplicate)) …; assay type: functional; conditions: HEK293
Insulin-degrading enzyme = molecular target: T2, Insulin-degrading enzyme (Homo sapiens, UniProt P14735); assay: Dose Response: Fluorescence polarization-based cell-based high throughput dose response assay for inhibitors of insulin-degrading enzyme (IDE). [Related pubchem assays: 434962 (Primary screen (IDE inhibitors in singlicate)), 449730 (Counterscreen (Cytotoxicity in triplicate)), 435028 (Confirmation (IDE inhibitors in triplicate)), 434984 (Summary …; assay type: functional
T2 sequence (P14735 whole entry): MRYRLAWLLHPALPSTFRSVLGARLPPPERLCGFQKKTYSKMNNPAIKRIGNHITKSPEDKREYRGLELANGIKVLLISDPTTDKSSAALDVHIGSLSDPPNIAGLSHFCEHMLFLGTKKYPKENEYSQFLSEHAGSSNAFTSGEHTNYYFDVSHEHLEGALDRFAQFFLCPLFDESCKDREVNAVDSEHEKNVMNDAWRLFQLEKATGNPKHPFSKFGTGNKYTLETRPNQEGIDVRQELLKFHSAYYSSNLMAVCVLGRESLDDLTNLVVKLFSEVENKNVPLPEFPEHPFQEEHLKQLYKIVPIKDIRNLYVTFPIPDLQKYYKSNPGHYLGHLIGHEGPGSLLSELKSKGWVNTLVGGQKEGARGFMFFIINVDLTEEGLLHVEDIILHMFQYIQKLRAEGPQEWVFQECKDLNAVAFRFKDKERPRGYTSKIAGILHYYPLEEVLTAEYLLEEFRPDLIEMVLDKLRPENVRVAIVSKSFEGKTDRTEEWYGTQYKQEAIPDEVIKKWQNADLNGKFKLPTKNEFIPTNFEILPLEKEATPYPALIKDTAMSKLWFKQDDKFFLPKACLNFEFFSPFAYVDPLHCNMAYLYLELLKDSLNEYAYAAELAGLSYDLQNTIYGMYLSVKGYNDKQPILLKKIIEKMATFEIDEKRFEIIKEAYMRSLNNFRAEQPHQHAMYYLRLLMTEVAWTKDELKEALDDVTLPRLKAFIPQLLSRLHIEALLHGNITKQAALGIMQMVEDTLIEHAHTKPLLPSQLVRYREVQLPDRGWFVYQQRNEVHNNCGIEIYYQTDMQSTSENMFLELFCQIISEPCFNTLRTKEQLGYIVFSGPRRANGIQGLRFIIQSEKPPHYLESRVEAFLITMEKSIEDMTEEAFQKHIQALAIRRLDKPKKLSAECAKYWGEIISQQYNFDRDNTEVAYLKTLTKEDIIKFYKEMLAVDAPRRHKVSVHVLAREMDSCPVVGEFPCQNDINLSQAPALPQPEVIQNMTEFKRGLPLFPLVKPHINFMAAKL

[4] = A cytotoxicity screen of small molecule inhibitors of the PhoP region in Salmonella typhi identified in the primary screen. [Related pubchem assays: 1850, 1864, 1985 ]; assay type: functional
[5] = Trypanosoma cruzi growth suppression in host cells – NIH3T3 host cells, beta-gal luminescence, confirmation (AID 2044); assay type: functional, cell-based;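 further: intracellular parasites grown in NIH/3T3 mouse fibroblasts as host cells; luminescent beta-galactosidase reporter signal from transgenic T. cruzi replicating inside host cells; inhibitors lower the luminescence signal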
[6] = NIH3T3 cell viability loss – ATP luminescence, mouse fibroblasts, counter-screen, dose response (AID 2010); assay type: functional, cell-based;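 further: cells exposed to compound for about 90 hours before reading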
[7] = HEK-293T cell viability reduction – luminescence, B-cell screen hits, cytotoxicity control for BCR NF-kB inhibitor project, dose response (AID 489021); assay type: functional, cell-based;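 further: HEK-293T cells carrying an NF-kB luciferase reporter; cells exposed to compound for about 14 hours before viability readout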
INS1 = assay: INS-1E survival protection against cytokine death – cell-based, luminescence, retest, dose response (AID 449756); assay type: functional; conditions: Rattus norvegicus;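 further: cell death triggered by IL-1 beta plus TNF-alpha plus IFN-gamma mixture; protective hits raise ATP signal compared with cytokine alone wells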
[8] = molecular target: Photoreceptor-specific nuclear receptor (Homo sapiens, UniProt Q9Y5X4); assay type: functional;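 further: potency for compounds that break the NR2E3 corepressor complex and count as activators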
Chain of Photoreceptor-specific nuclear receptor (Q9Y5X4 whole entry): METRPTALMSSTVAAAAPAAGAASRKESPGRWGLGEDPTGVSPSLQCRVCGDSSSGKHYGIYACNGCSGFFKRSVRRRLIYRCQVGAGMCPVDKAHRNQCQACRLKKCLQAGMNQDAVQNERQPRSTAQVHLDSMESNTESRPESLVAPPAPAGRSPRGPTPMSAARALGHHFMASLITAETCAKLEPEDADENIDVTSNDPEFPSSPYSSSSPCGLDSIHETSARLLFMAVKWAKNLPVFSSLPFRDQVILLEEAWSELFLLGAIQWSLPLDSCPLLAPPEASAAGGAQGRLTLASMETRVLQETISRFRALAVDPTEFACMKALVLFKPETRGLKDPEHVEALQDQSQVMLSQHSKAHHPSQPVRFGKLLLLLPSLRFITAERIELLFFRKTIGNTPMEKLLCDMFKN

[9] = molecular target: Peroxisome proliferator-activated receptor gamma/Nuclear receptor corepressor 2 (Homo sapiens, UniProt P37231+Q9Y618); assay type: functional
Chain of Peroxisome proliferator-activated receptor gamma/Nuclear receptor corepressor 2 (P37231 whole entry): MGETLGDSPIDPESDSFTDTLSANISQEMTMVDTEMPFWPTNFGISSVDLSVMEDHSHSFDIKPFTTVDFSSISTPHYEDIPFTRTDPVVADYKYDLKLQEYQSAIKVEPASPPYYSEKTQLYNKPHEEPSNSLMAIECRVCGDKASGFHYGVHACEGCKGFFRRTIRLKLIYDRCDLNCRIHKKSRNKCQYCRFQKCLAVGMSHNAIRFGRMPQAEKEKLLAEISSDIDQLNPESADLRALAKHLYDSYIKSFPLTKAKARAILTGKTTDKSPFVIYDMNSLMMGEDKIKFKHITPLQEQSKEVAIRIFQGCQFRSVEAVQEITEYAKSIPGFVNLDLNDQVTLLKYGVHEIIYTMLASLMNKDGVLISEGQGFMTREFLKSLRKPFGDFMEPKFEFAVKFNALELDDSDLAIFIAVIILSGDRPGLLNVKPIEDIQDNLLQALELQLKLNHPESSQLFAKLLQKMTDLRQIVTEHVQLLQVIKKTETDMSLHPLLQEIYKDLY
Chain of Peroxisome proliferator-activated receptor gamma/Nuclear receptor corepressor 2 (Q9Y618 whole entry): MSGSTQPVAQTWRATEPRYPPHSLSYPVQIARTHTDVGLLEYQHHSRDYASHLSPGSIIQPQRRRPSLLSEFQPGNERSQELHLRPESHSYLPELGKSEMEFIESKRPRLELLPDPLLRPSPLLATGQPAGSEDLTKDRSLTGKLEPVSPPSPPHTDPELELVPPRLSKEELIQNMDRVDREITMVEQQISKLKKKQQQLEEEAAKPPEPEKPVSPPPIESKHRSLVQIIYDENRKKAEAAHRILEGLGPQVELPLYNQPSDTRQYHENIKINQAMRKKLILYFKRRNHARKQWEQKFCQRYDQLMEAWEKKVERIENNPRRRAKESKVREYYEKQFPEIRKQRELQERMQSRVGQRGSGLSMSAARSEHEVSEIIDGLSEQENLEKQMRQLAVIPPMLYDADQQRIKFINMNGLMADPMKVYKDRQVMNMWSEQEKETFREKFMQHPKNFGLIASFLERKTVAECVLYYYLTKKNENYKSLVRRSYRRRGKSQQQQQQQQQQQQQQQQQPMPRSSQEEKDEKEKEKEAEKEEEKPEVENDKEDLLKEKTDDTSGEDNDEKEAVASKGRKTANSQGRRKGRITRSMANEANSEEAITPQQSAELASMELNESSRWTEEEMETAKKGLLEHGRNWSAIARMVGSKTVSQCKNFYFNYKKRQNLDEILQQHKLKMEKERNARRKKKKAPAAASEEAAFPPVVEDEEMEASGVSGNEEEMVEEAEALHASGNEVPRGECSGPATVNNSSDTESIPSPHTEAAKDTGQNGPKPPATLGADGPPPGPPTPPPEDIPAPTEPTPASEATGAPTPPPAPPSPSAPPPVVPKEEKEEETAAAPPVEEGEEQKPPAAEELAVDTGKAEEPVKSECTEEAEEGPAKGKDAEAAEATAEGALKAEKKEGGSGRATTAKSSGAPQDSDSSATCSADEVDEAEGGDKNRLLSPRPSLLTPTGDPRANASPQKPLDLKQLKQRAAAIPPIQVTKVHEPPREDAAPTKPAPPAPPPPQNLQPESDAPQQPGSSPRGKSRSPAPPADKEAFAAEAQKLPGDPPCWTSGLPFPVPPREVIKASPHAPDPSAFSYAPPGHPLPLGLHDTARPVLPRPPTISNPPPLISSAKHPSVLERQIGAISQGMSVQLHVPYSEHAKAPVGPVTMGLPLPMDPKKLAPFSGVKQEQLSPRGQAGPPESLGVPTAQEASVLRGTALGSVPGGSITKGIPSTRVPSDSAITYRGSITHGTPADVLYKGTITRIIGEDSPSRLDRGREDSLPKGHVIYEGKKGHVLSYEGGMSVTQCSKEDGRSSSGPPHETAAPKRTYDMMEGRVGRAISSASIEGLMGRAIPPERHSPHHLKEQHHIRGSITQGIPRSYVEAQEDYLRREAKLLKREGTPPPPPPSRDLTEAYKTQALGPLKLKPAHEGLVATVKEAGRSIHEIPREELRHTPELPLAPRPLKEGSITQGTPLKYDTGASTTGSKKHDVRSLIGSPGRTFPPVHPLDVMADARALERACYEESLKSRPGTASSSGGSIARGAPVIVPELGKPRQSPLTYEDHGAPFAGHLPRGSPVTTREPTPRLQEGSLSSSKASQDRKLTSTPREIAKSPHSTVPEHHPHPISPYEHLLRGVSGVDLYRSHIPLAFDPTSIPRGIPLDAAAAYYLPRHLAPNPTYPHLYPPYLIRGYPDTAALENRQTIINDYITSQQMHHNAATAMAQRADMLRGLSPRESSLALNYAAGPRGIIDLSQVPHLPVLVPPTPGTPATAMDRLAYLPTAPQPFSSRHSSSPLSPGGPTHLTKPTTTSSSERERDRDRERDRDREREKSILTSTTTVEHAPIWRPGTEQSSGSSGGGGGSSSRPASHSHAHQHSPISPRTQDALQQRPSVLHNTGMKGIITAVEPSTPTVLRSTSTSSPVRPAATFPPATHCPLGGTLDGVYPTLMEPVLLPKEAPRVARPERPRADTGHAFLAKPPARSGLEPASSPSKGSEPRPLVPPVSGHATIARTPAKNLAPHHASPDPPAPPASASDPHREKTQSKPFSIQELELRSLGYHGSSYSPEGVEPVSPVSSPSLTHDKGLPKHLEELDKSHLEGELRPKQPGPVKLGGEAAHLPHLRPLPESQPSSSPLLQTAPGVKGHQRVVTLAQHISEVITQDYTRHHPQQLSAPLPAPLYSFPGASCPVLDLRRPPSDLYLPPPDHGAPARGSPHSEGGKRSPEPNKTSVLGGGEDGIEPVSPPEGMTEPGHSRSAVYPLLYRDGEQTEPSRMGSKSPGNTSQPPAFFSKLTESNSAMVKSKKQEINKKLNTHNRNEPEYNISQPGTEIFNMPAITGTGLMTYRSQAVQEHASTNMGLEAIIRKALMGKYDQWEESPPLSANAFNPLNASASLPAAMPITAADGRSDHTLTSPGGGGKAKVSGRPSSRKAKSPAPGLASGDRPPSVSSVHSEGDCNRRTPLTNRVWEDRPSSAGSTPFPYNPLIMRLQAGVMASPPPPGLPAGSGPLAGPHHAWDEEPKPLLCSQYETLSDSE

[10] = molecular target: Lysosomal acid glucosylceramidase (Homo sapiens, UniProt P04062); assay: Dose response cell-based high throughput screening assay to identify enhancers of beta-glucosidase activity. [Related pubchem assays: 784 ]; assay type: functional
Chain of Lysosomal acid glucosylceramidase (P04062 whole entry): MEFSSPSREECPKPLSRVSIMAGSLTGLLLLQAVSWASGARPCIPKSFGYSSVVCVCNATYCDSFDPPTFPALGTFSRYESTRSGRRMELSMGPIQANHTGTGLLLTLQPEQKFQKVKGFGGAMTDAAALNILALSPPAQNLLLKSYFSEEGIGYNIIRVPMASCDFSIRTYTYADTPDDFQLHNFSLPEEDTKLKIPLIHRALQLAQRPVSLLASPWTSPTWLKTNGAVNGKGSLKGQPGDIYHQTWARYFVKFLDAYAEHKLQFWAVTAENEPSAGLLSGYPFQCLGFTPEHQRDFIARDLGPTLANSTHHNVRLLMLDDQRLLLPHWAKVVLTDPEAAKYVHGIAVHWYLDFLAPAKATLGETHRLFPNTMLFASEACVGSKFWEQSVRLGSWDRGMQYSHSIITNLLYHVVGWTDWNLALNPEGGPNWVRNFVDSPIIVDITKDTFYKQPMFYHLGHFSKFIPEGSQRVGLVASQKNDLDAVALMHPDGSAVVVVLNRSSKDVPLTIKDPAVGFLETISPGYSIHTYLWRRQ

[11] = luciferase reporter signal suppression in cells – H4 neuroglioma cells, luminescence, dose response (AID 1990); assay type: functional, cell-based
[12] = Luminescence Cell-Based Dose Response HTS to Identify Inhibitors of 5'UTR Stem-Loop Driven Prion Protein mRNA Translation in H4 Neuroglioblastoma Cells. [Related pubchem assays: 1827 (Project Summary), 1813 (Primary HTS)]; assay type: functional
[13] = Luminescence-based counterscreen assay for KLF5 inhibitors: dose response cell-based high throughput screening assay to identify cytotoxic compounds using the IEC-6 intestinal epithelial cell line. [Related pubchem assays: 1700 (Primary screen.), 1834 (Confirmation screen.), 1858 (Summary AID.), 1905 (Counterscreen.)]; assay type: functional
[14] = molecular target: T3, Microphthalmia-associated transcription factor (Homo sapiens, UniProt O75030); assay: reducers of TRPM1 reporter luminescence, concentration series – cell-based, SK-MEL-5, cherry-picked, set 3, MITF inhibitor project, dose response (AID 493073); assay type: functional;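 further: SK-MEL-5 melanoma cells with luciferase driven by the MITF target TRPM1 promoter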
T3 sequence (O75030 whole entry): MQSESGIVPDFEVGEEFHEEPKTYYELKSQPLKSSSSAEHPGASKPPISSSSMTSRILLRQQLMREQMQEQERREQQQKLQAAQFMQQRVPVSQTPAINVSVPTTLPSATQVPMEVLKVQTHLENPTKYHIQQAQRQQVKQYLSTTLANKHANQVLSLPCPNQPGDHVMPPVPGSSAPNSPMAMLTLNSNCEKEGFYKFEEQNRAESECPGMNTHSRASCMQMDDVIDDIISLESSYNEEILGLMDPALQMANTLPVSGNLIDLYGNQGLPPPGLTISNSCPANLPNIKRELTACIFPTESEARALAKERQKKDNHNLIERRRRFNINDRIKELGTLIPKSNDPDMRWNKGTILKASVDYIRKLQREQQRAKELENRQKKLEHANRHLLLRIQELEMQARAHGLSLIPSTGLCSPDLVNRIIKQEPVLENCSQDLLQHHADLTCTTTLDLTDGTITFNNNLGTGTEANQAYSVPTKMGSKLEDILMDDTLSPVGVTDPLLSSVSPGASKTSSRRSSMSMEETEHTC

[15] = reduction of Shn3 3'UTR-driven luciferase in osteoblasts – cell-based, Clone20 osteoblasts, firefly luciferase, cherry-picked, dose response (AID 624132); assay type: functional;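 further: firefly luciferase luminescence from reporter carrying the Shn3 3'UTR in osteoblasts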
[16] = loss of viability in HepG2 cells – cell-based, CellTiter-Glo, cherry-picked, cytotoxicity control for Shn3 inhibitor project, dose response (AID 624134); assay type: functional
[17] = Shn3 3'UTR reporter signal decrease – cell-based, Clone20 osteoblasts, firefly luciferase, cherry-pick, set 2, Schnurri-3 inhibitor project, dose response (AID 720490); assay type: functional;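 further: actives lower the luminescence signal as inhibitors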

Structure (SMILES): O=C(Nc1cccc(-c2nc3cccnc3s2)c1)C1c2ccccc2Oc2ccccc21
- IC50 [1]: 7.46 µM (active)
- IC50 [2]: > 64 µM (inactive)
- AC50 (Escherichia coli): 50.5 µM (active)

Structure (SMILES): Cc1c(CCC(=O)NCCCn2ccnc2)c(=O)oc2cc3oc4c(c3cc12)CCCC4
- IC50 [3]: 14.4 µM (not active)
- IC50 (Insulin-degrading enzyme): 4.31 µM (active)

Structure (SMILES): COc1nccnc1NS(=O)(=O)c1ccc(NC(=S)NC(=O)c2cccnc2)cc1
- EC50 [4]: > 50 µM (active)

Structure (SMILES): CC(=O)C1=NN(c2ccccc2)C(c2cccs2)N1c1ccc(N(C)C)cc1 (configuration not stated)
- EC50 [5]: 0.776 µM (active)
- EC50 [6]: > 60 µM (inconclusive)
- IC50 [7]: > 80 µM (inactive)
- AC50 (INS1): 3.1 µM (active)

Structure (SMILES): Cc1ccc(C(=O)C2=C(O)C(=O)N(Cc3cccnc3)C2c2ccc(Br)cc2)o1 (configuration not stated)
- IC50 [8]: > 39.8 µM (not active)
- IC50 [9]: 9.36 µM (active)

Structure (SMILES): Cc1ccc(C(C(=O)NC2CCCCC2)N2CCCC2)cc1 (configuration not stated)
- EC50 [10]: > 50 µM (not active)

Structure (SMILES): O=C(C1=C(O)C(=O)N(CCN2CCOCC2)C1c1ccc(Cl)cc1)c1cc2ccccc2o1 (configuration not stated)
- IC50 [8]: > 39.8 µM (not active)
- IC50 [9]: 9.92 µM (active)

Structure (SMILES): COc1ccc(-n2ncc3c(N4CCCCC4)ncnc32)cc1
- EC50 [11]: 1.72 µM (inconclusive)
- EC50 [12]: 0.282 µM (active)
- IC50 [13]: > 39.8 µM (not active)
- AC50 [14]: 1.48 µM (active)
- AC50 [15]: 2.87 µM (active)
- AC50 [16]: > 70 µM (inactive)
- AC50 [17]: 11 µM (active)
